Source: US8946264B2, “Pyridine derivative” (Daiichi Sankyo Company, Limited, priority 2009, dated 2015)

Columns and labels:
KK mice = assay: Hypoglycemic effect (glucose lowering rate) in diabetic KK mice; assay type: in vivo; settings: male KK mice, diet admixture containing 0.03% of the compound, three days, plasma glucose on the 3rd day vs control group; for inhibition in vivo at 0.03 % in diet: Mus musculus, po, 72 h
Source text: Six-week-old male KK mice were purchased from CLEA Japan, Inc. and then were fed until 15 to 20 weeks old to develop diabetes. The mice were individually fed during the adaptation period and the test period, and water and feed (FR2, Funabashi Farm) were freely ingested.
At the start of the experiment, after body weight measurement, blood was collected from the tail vein of the mice into a heparin-coated glass tube and centrifuged, and then plasma was separated. The glucose level in the plasma was measured by Glucoloader GXT (A&T Corp.), and individuals having a plasma glucose level of about 350 mg/dl or more were selected. The mice were grouped, each group having 3 to 4 mice, to make the average body weight and the average plasma glucose level similar. Each compound was administered to a compound group with a diet admixture containing 0.03% of the compound. A separate group in which the mice were fed only with diet was a control group.
The experiment period (drug administration period) was three days. The grouping day was the 0th day. On the 3rd day, the body weight was measured and blood was collected from the tail vein to measure the plasma glucose level.
The glucose lowering rate was determined by the following formula. Glucose lowering rate=[(Control group plasma glucose level−Compound-administered group plasma glucose level)/Control group plasma glucose level]×100

[1] = target: T1, GAL4-PPARγ chimeric receptor (Homo sapiens, UniProt P37231); assay: PPARγ activation effect/modulator activity, GAL4-PPARγ luciferase reporter assay in COS-7 cells; assay type: cell-based; settings: for Emax: COS-7, maximum luciferase activity, positive control rosiglitazone = 100%, DMSO control = 0%
T1 construct: expressed in transfected cells; host or cells: COS-7 (monkey kidney-derived cell line)
T1 sequence (P37231 with tags, fused parts or gaps): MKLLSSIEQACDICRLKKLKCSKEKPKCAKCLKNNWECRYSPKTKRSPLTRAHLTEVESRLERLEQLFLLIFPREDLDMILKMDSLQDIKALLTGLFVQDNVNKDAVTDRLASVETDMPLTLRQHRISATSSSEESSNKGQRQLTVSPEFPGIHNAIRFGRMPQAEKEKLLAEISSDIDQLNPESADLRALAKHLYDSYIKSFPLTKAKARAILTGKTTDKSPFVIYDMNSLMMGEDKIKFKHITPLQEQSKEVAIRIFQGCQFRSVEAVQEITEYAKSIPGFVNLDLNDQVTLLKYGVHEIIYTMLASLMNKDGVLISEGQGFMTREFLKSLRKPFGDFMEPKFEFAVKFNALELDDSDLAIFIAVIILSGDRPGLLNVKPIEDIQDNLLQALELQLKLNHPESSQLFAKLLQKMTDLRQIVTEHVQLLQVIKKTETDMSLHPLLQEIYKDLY
Protocol: A test was carried out according to the reporter assay method with reference to a report by Kliewer et al. (Journal of Biological Chemistry, 1995, Vol. 270 (22), p. 12953-12956) as a method for measuring the ability of a compound to activate PPARγ (hereinafter PPARγ activation effect/modulator activity). Commercially available reagents and kits were used according to the attached instructions. The details will be shown below. The ligand-binding domain of human PPARγ (corresponding to about 300 amino acids at the carboxy end) was bound to the DNA-binding domain of the yeast transcription factor GAL4 (corresponding to 147 amino acids at the amino end) with reference to the report by Kliewer et al. to prepare a gene expressing a GAL4-PPARγ receptor. The plasmid pM-PPARγ obtained by the above operation includes the nucleotide sequence represented by SEQ ID NO: 4 of the Sequence Listing and encodes an amino acid sequence represented by SEQ ID NO: 5 of the Sequence Listing containing amino acids 1 to 147 of the yeast transcription factor GAL4 at the amino end and containing amino acids 175 to 475 of human PPARγ and a stop codon at the carboxy end. The plasmid is a gene that can express a GAL4-PPARγ chimeric receptor in mammalian cells. The previously acquired plasmid pM-PPARγ and the plasmid pFR-Luc purchased from Stratagene Cloning Systems, Inc. were dissolved in deionised water at a concentration of 1 mg/mL each. […] COS-7 cells were transfected with 4.8 micrograms per flask of the plasmid pM-PPARγ and 19.2 μg per flask of the plasmid pFR-Luc using Lipofectamine 2000 transfection reagent (manufactured by Invitrogen Corporation), and the cells were cultured overnight. […] The test compound was dissolved in dimethyl sulfoxide at a concentration of 4 mM. The solution was serially diluted 3.3-fold with dimethyl sulfoxide to prepare solutions of the compound at concentrations up to 400 nM. Dimethyl sulfoxide was prepared for the control group. Rosiglitazone dissolved in dimethyl sulfoxide at a concentration of 4 mM was prepared for the positive control group. They were diluted 20-fold with the medium, and 5 μL of the dilution was added to the wells in which the cells were grown. […] After the addition, the cells were cultured overnight. On the following day, the medium was removed, and Luc Lite (manufactured by PerkinElmer Inc.) was prepared according to the attached document and added at 50 microliters per well. […] The amount of luminescence in each well was measured as luciferase activity using Analyst (Molecular Devices) for 0.5 second. A dose-dependent curve was drawn.

EC50 [1] [µM] | Emax [1] [%] | Structure (SMILES) | inhibition in vivo at 0.03 % in diet (KK mice) [%] | Glucose lowering rate (%) (KK mice)
– | – | Cn1c(COc2cccc(C(=O)O)c2)nc2ccc(Oc3cccnc3)cc21 [Compound A, reference compound] | 20 | –
– | – | Cc1cc(C)c(Oc2ccc3nc(COc4cccc(C(=O)O)c4)n(C)c3c2)nc1C [Example 15, 3-({1-Methyl-6-[(3,5,6-trimethylpyridin-2-yl)oxy]-1H-benzimidazol-2-yl}methoxy)benzoic acid] | – | 30
– | – | Cc1cnc(Oc2ccc3nc(COc4cccc(C(=O)O)c4)n(C)c3c2)c(F)c1 [Example 9, 3-({6-[(3-Fluoro-5-methylpyridin-2-yl)oxy]-1-methyl-1H-benzimidazol-2-yl}methoxy)benzoic acid] | – | 41
– | – | Cc1cc(F)cnc1Oc1ccc2nc(COc3cccc(C(=O)O)c3)n(C)c2c1 [Example 8, 3-({6-[(5-Fluoro-3-methylpyridin-2-yl)oxy]-1-methyl-1H-benzimidazol-2-yl}methoxy)benzoic acid] | – | 33
– | – | COc1cc(Oc2ccc3nc(COc4cccc(C(=O)O)c4)n(C)c3c2)ccn1 [Example 16, 3-({6-[(2-Methoxypyridin-4-yl)oxy]-1-methyl-1H-benzimidazol-2-yl}methoxy)benzoic acid] | 17 | –
– | – | Cc1ccc(Oc2ccc3nc(COc4cccc(C(=O)O)c4)n(C)c3c2)nc1C [Example 4, 3-({6-[(5,6-Dimethylpyridin-2-yl)oxy]-1-methyl-1H-benzimidazol-2-yl}methoxy)benzoic acid] | – | 28
– | – | COc1cc(Oc2ccc3nc(COc4cccc(C(=O)O)c4)n(C)c3c2)cc(C)n1 [Example 17, 3-({6-[(2-Methoxy-6-methylpyridin-4-yl)oxy]-1-methyl-1H-benzimidazol-2-yl}methoxy)benzoic acid] | 36 | –
0.024 | 79 | Cn1c(COc2cccc(C(=O)O)c2)nc2ccc(Oc3ncc(Cl)cc3F)cc21 [Example 5, 3-({6-[(5-Chloro-3-fluoropyridin-2-yl)oxy]-1-methyl-1H-benzimidazol-2-yl}methoxy)benzoic acid] | 34 | –
0.18 | 73 | CCc1cccnc1Oc1ccc2nc(COc3cccc(C(=O)O)c3)n(C)c2c1 [Example 2, 3-({6-[(3-Ethylpyridin-2-yl)oxy]-1-methyl-1H-benzimidazol-2-yl}methoxy)benzoic acid] | 31 | –
– | – | Cc1cnc(Oc2ccc3nc(COc4cccc(C(=O)O)c4)n(C)c3c2)c(C)c1 [Example 10, 3-({6-[(3,5-Dimethylpyridin-2-yl)oxy]-1-methyl-1H-benzimidazol-2-yl}methoxy)benzoic acid] | – | 37
